Experimental data from patent publication US20210138090A1, “uPAR targeting peptide for use in peroperative optical imaging of invasive cancer” (FLUOGUIDE A/S, priority 2014, published 2021).
Square brackets hold non-standard residues; d marks the D form. Primed or numbered codes have the meaning given here. Peptide text beside a SMILES is read from it. * marks the point of attachment. ξ: configuration not given here. X1 = CC1(C)C(/C=C/C=C/C=C/C=C2\N(CCCCCC(=O)*)c3ccc4ccccc4c3C2(C)C)=[N+](CCCCS(=O)(=O)[O-])c2ccc3ccccc3c21; Cha = N[C@@H](CC1CCCCC1)C(=O)O; IRDye800CW′ = not defined here; ξR = N=C(N)NCCCC(N)C(=O)O; ξF = NC(Cc1ccccc1)C(=O)O; ξE = NC(CCC(=O)O)C(=O)O; ξD = NC(CC(=O)O)C(=O)O; AEEA = NCCOCCOCC(=O)O; ξS = NC(CO)C(=O)O

What was measured:
uPAR H47C-N259C = uPAR H47C-N259C (Homo sapiens, UniProt Q03405, H69C/N281C); assay: SPR inhibition of uPAR binding to immobilized uPA, constrained uPAR variant (negative control); conditions: SPR, constrained uPAR variant, negative control; read-out: IC50 uPAR H47C-N259C
Sequence of uPAR H47C-N259C (Q03405 23-305 H69C/N281C limits assumed): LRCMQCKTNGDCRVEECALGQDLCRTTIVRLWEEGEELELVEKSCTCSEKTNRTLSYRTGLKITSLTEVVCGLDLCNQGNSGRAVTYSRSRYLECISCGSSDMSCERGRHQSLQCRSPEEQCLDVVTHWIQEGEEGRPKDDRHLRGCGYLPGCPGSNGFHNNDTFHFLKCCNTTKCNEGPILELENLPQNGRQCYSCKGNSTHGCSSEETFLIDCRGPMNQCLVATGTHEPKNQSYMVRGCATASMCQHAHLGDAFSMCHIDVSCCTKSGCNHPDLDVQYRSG
Experimental: (§1) Covalent immobilization of purified human prouPA^S356A—was accomplished by injecting 12.5 μg/ml protein dissolved in 10 mM sodium acetate (pH 5.0) over a CM5 chip that had been pre-activated with NHS/EDC (N-ethyl-N′-[3-[…])propyl]-carbodiimide), aiming at a surface density of >5000 resonance units (RU) corresponding to 100 fmols/mm^2. After coupling the sensorchip was deactivated with 1 M ethanolamine. Binding of purified human uPAR as analyte was measured from 4 nM to 0.25 nM at 20° C. using 10 mM HEPES, 150 mM NaCl, 3 mM EDTA (pH 7.4) containing 0.05% (v/v) surfactant P20 as running buffer at a flow rate of 50 μl/min. In between cycles the sensorchip was regenerated by two consecutive 10-μl injections of 0.1 M acetic acid/HCl (pH 2.5) in 0.5 M NaCl. The inhibition of 3-fold dilutions of the compounds in question was measured for 4 nM uPAR with identical running conditions. All experiments were performed on a BiacoreT200 instrument.
(§2) For each inhibition peptide inhibition profile of uPAR binding to immobilized uPA there has been run a preceding standard curve and all calculations are based on the that standard curve.
Surface plasmon resonance (SPR) was applied to determine the […]-value of IRDye800-AE344 on the uPAR⋅uPA interaction in solution using a Biacore 3000 instrument essentially as described. In brief; pro-uPA^S356A, which is the natural ligand for uPAR. […] The analysis was carried out by measuring vobs of a fixed uPAR concentration (2 nM) incubated with a 3-fold dilution series of IRDye800-AE344 (ranging from 0.076 nM to 1.5 μM) for 300 sec at 20° C. with a flow rate of 50 μL/min. A standard curve was measured in parallel (2-fold dilution of uPAR covering 0.06 nM to 2 nM) including one repeated concentration point at the end to validate the biological integrity of the sensor chip. […] The parent nonamer peptide antagonist AE105 (Asp-Cha-Phe-D-Ser-D-Arg-Tyr-Leu-Trp-Ser-OH) was analyzed in parallel as positive control and the closed uPAR^H47C-N259C was used as negative control as its uPA binding cavity cannot accommodate AE105.

uPAR wt = uPAR wt (Homo sapiens, UniProt Q03405); assay: SPR inhibition of uPAR binding to immobilized uPA
Sequence of uPAR wt (Q03405 23-305 limits assumed): as the sequence (Q03405 23-305 H69C/N281C limits assumed) above, with C47H, C259N counted along it
Experimental: as §1, §2
Surface plasmon resonance (SPR) was applied to determine the […]-value of IRDye800-AE344 on the uPAR⋅uPA interaction in solution using a Biacore 3000 instrument essentially as described. In brief; pro-uPA^S356A, which is the natural ligand for uPAR. […] The analysis was carried out by measuring vobs of a fixed uPAR concentration (2 nM) incubated with a 3-fold dilution series of IRDye800-AE344 (ranging from 0.076 nM to 1.5 μM) for 300 sec at 20° C. with a flow rate of 50 μL/min. A standard curve was measured in parallel (2-fold dilution of uPAR covering 0.06 nM to 2 nM) including one repeated concentration point at the end to validate the biological integrity of the sensor chip. Running buffer contained 10 mM HEPES, 150 mM NaCl, 3 mM EDTA and 0.05% (v/v) surfactant P20, pH 7.4. The sensor chip was regenerated with two injections of 0.1 M acetic acid, 0.5 M NaCl. The parent nonamer peptide antagonist AE105 (Asp-Cha-Phe-D-Ser-D-Arg-Tyr-Leu-Trp-Ser-OH) was analyzed in parallel as positive control and the closed uPAR^H47C-N259C was used as negative control as its uPA binding cavity cannot accommodate AE105.

purified uPAR = purified uPAR (Homo sapiens, UniProt Q03405); assay: binding affinity towards purified uPAR (first example)
Sequence of purified uPAR (Q03405 23-305): as the sequence (Q03405 23-305 H69C/N281C limits assumed) above, with C47H, C259N counted along it

U87MG tumours [1] = assay: optical imaging of U87MG tumour-bearing mice, IVIS Lumina XR; assay type: in vivo; conditions: 10 nmol i.v., 15 hr post injection; for max radiance for the tumors / tumor-to-background (TBR) ratio: IVIS Lumina XR; for tumor-to-background (TBR) ratio: n=10
Experimental: (§3) All animal experiments were performed under a protocol approved by the Animal Research Committee of the Danish Ministry of Justice. 5*10^6 U87MG cells were suspended in 200 μl PBS and inoculated on both flanks of the mouse. When the tumours reached an appropriate size the mice were imaged with AE105-Glu-Glu-ICG.
The mice were injected with 10 nmol of AE105-Glu-Glu-ICG or ICG i.v., and imaged 15 hr post injection. Before scan the mice were anaesthetized with 2% isofluran and positioned in a prone position. For imaging the IVIS Lumina XR and the acquisition software Living Image were used. The excitation filter was set to 710 nm and the emission filter was set in the ICG position. Acquisition was set to auto-settings to achieve the best acquisition as possible.
(§4) The TBR values were calculated by drawing a ROI over each tumor and place the background ROI in an area with constant background signal.

[2] = tested on: orthotopic GBM (U-87 MG-luc2 cells); assay: in vivo binding specificity in orthotopic GBM (blocking with AE120, scrambled probe); set-up: species or system mice; conditions: 3 nmol, 1 h, no blocking
Experimental: The target specificity to uPAR was evaluated by two different methods: competitive blocking with the uPAR targeting peptide AE120 ((DChaFsrYLWSG)2-βAK) and IRDye800 conjugated to a scrambled peptide, AE354 (IRDye800CW-Glu-Glu-NH—CH2—CH2—O—CH2—CH2—O—CH2—CO—NH—CH2—CH2—O—CH2—CH2—O—CH2—CO-Asp-Cha-Glu-(D)Ser-(D)Arg-Tyr-Leu-Glu-Ser-OH) with similar peptide length as the active peptide. The competitive blocking dose of 1.4-2.8 mg AE120 was injected intraperitoneally 15-30 min prior to intravenous injection of 3 nmol IRDye800CW-AE344 and imaged at 1 h (n=5). The scrambled peptide was administered at 3 nmol and the animals were imaged after 1 h (n=4).
Images were analyzed and processed in ImageJ 1.52a, NIH, USA. Signal measurements were performed on the raw images generated by the Fluoptics system. Tumor signal was measured as a mean fluorescence intensity of the whole tumor and background signal was measured as the mean of a representative area with no tumor on the contralateral hemisphere. Presented pictures are contrast enhanced in ImageJ with the Contrast Enhancement (Saturated pixels: 0.3%).

U87MG tumours [3] = assay: optical imaging of U87MG tumour-bearing mice, Fluobeam camera; assay type: in vivo; conditions: 10 nmol i.v.
Experimental: as §3
After imaging with IVIS Lumina XR the mouse was moved to a Fluobeam setup and imaged with appropriate acquisition time.
as §4

[4] = comparison of fluorescence intensity of ICG and ICG-Glu-Glu-AE105; assay type: physicochemical; conditions: data not shown

Molecule: CC(C)C[C@H](NC(=O)[C@H](Cc1ccc(O)cc1)NC(=O)[C@@H](CCCNC(=N)N)NC(=O)[C@@H](CO)NC(=O)[C@H](Cc1ccccc1)NC(=O)[C@H](CC1CCCCC1)NC(=O)[C@@H](N)CC(=O)O)C(=O)N[C@@H](Cc1c[nH]c2ccccc12)C(=O)N[C@@H](CO)C(=O)O [AE105, Asp-Cha-Phe-(D)Ser-(D)Arg-Tyr-Leu-Trp-Ser-OH, reference compound]
- IC50 (uPAR H47C-N259C): 4500 ± 1500 nM
- IC50 (uPAR wt): 7.8 ± 1 nM
- IC50 (purified uPAR): ~10 nM

Molecule: CC(C)C[C@H](NC(=O)[C@H](Cc1ccc(O)cc1)NC(=O)[C@@H](CCCNC(=N)N)NC(=O)[C@@H](CO)NC(=O)[C@H](Cc1ccccc1)NC(=O)[C@H](CC1CCCCC1)NC(=O)[C@H](CC(=O)O)NC(=O)COCCOCCNC(=O)[C@H](CCC(=O)O)NC(=O)[C@@H](N)CCC(=O)O)C(=O)N[C@@H](Cc1c[nH]c2ccccc12)C(=O)N[C@@H](CO)C(N)=O [AE347, Glu Glu O2Oc Asp Cha Phe D-Ser D-Arg Tyr Leu Trp Ser-NH2] (H-EE[AEEA]D[Cha]F[dS][dR]YLWS-NH2; N-terminus assumed)
- IC50 (uPAR wt): 3.5 ± 0.1 nM

Molecule: CC1(C)C(/C=C/C=C/C=C/C=C2\N(CCCCS(=O)(=O)O)c3ccc4ccccc4c3C2(C)C)=[N+](CCCCS(=O)(=O)[O-])c2ccc3ccccc3c21 [ICG, indocyanine green, reference compound]
- uptake in the tumor (U87MG tumours [1]): No specific uptake
- max radiance for the tumors (U87MG tumours [1]): 7.51E+06±3.13E+05 radiance efficiency
- tumor-to-background (TBR) ratio (U87MG tumours [1]): 1.04±0.04

Molecule: CC(C)C[C@H](NC(=O)[C@H](Cc1ccc(O)cc1)NC(=O)[C@@H](CCCNC(=N)N)NC(=O)[C@@H](CO)NC(=O)[C@H](Cc1ccccc1)NC(=O)[C@H](CC1CCCCC1)NC(=O)[C@H](CC(=O)O)NC(=O)[C@H](CCC(=O)O)NC(=O)[C@@H](N)CCC(=O)O)C(=O)N[C@@H](Cc1c[nH]c2ccccc12)C(=O)N[C@@H](CO)C(=O)O [AE349, Glu Glu Asp Cha Phe D-Ser D-Arg Tyr Leu Trp Ser-OH] (H-EED[Cha]F[dS][dR]YLWS-OH; N-terminus assumed)
- IC50 (uPAR wt): 12.5 ± 0.6 nM

Molecule: CC(C)C[C@H](NC(=O)[C@H](Cc1ccc(O)cc1)NC(=O)[C@@H](CCCNC(=N)N)NC(=O)[C@@H](CO)NC(=O)[C@H](Cc1ccccc1)NC(=O)[C@H](CC1CCCCC1)NC(=O)[C@H](CC(=O)O)NC(=O)COCCOCCNC(=O)COCCOCCNC(=O)[C@H](CCC(=O)O)NC(=O)[C@@H](N)CCC(=O)O)C(=O)N[C@@H](Cc1c[nH]c2ccccc12)C(=O)N[C@@H](CO)C(N)=O [AE345, Glu Glu O2Oc O2Oc Asp Cha Phe D-Ser D-Arg Tyr Leu Trp Ser-NH2] (H-EE[AEEA][AEEA]D[Cha]F[dS][dR]YLWS-NH2; N-terminus assumed)
- IC50 (uPAR wt): 31.8 ± 1.5 nM

Molecule: IRDye800CW-Glu-Glu-NH—CH2—CH2—O—CH2—CH2—O—CH2—CO—NH—CH2—CH2—O—CH2—CH2—O—CH2—CO-Asp-Cha-Glu-(D)Ser-(D)Arg-Tyr-Leu-Glu-Ser-OH ({IRDye800CW′}-EE[AEEA][AEEA]D[Cha]E[dS][dR]YLES-OH) [IRDye800CW-AE354, reference compound]
- TBR [2]: 3.4
- normalized TBR (ref: active probe) [2]: 0.52

Molecule: CC(C)C[C@H](NC(=O)[C@H](Cc1ccc(O)cc1)NC(=O)[C@@H](CCCNC(=N)N)NC(=O)[C@@H](CO)NC(=O)[C@H](Cc1ccccc1)NC(=O)[C@H](CC1CCCCC1)NC(=O)[C@H](CC(=O)O)NC(=O)COCCOCCNC(=O)[C@@H](N)CCC(=O)O)C(=O)N[C@@H](Cc1c[nH]c2ccccc12)C(=O)N[C@@H](CO)C(N)=O [AE348, Glu O2Oc Asp Cha Phe D-Ser D-Arg Tyr Leu Trp Ser-NH2] (H-E[AEEA]D[Cha]F[dS][dR]YLWS-NH2; N-terminus assumed)
- IC50 (uPAR wt): 6.7 ± 0.2 nM

Molecule: CC(C)C[C@H](NC(=O)[C@H](Cc1ccc(O)cc1)NC(=O)C(CCCNC(=N)N)NC(=O)C(CO)NC(=O)C(Cc1ccccc1)NC(=O)[C@H](CC1CCCCC1)NC(=O)C(CC(=O)O)NC(=O)C(CCC(=O)O)NC(=O)C(CCC(=O)O)NC(=O)CCCCCN1\C(=C/C=C/C=C/C=C/C2=[N+](CCCCS(=O)(=O)[O-])c3ccc4ccccc4c3C2(C)C)C(C)(C)c2c1ccc1ccccc21)C(=O)N[C@@H](Cc1c[nH]c2ccccc12)C(=O)N[C@@H](CO)C(=O)O (stereo partly drawn) [ICG-Glu-Glu-AE105] (X1-[ξE][ξE][ξD][Cha][ξF][ξS][ξR]YLWS-OH)
- TBR (U87MG tumours [3]): 3.58±0.29
- IC50 (uPAR H47C-N259C): 990 ± 50 nM
- decrease in fluorescence intensity for the conjugated probe compared with ICG [4]: 2 fold
- IC50 (uPAR wt): 142 ± 13 nM
- IC50 (purified uPAR): ~80 nM
- uptake in the tumor (U87MG tumours [1]): high uptake
- max radiance for the tumors (U87MG tumours [1]): 3.43E+08±0.34E+08 radiance efficiency
- tumor-to-background (TBR) ratio (U87MG tumours [1]): 3.52±0.167

Molecule: CC(C)C[C@H](NC(=O)[C@H](Cc1ccc(O)cc1)NC(=O)[C@@H](CCCNC(=N)N)NC(=O)[C@@H](CO)NC(=O)[C@H](Cc1ccccc1)NC(=O)[C@H](CC1CCCCC1)NC(=O)[C@H](CC(=O)O)NC(=O)COCCOCCNC(=O)COCCOCCN)C(=O)N[C@@H](Cc1c[nH]c2ccccc12)C(=O)N[C@@H](CO)C(=O)O [AE346, O2Oc O2Oc Asp Cha Phe D-Ser D-Arg Tyr Leu Trp Ser-OH] (H-[AEEA][AEEA]D[Cha]F[dS][dR]YLWS-OH; N-terminus assumed)
- IC50 (uPAR wt): 16.1 ± 0.9 nM

Molecule: CC(C)C[C@H](NC(=O)[C@H](Cc1ccc(O)cc1)NC(=O)[C@@H](CCCNC(=N)N)NC(=O)[C@@H](CO)NC(=O)[C@H](Cc1ccccc1)NC(=O)[C@H](CC1CCCCC1)NC(=O)[C@H](CC(=O)O)NC(=O)COCCOCCNC(=O)COCCOCCNC(=O)[C@H](CCC(=O)O)NC(=O)[C@@H](N)CCC(=O)O)C(=O)N[C@@H](Cc1c[nH]c2ccccc12)C(=O)N[C@@H](CO)C(=O)O [AE344, Glu Glu O2Oc O2Oc Asp Cha Phe D-Ser D-Arg Tyr Leu Trp Ser-OH] (H-EE[AEEA][AEEA]D[Cha]F[dS][dR]YLWS-OH; N-terminus assumed)
- IC50 (uPAR wt): 5.7 ± 0.5 nM
